Assay results published in patent US20140235500A1, “HIGH THROUGHPUT INSTRUMENTATION TO SCREEN CELLS AND PARTICLES BASED ON THEIR MECHANICAL PROPERTIES” (The Regents of the University of California, priority 2011, published 2014).

Tests used:
[1] = tested on: HL60 cells; assay: High throughput mechanical screening (HTMS): cell passage through porous membrane under applied pressure; format: cell-based, human; settings: for cell deformability: FIG. 27
Source text: An initial prototype device (see, e.g., FIGS. 9-16) was machined out of polymethylmethacrylate (McMaster Carr) in the format of a 96-well plate containing: a porous membrane sandwiched between a bottom, multiwell collection plate, and a top loading plate. A pressure chamber seals the device and interfaces with a compressed air tank (see, e.g., FIG. 17).
In the initial prototype device, we use track-etched, polycarbonate membranes with 5 μm pore size (Millipore). To minimize adhesion, surface treatment with 10 mg/mL bovine serum albumin was performed prior to the experiment. To load the device, cells were deposited on top of the porous membrane in each individual well. The optimal loading density of cells was established iteratively with detection: a loading density of ˜10^6 cells/mL was optimal given the estimated lower detection limit of 10^2 cells/mL using a flow cytometer.
Once the device was loaded, the pressure chamber lid was placed on top to create a pressure-tight seal, and tubing was connected to a tank of compressed air with 5% CO2 that was outfitted with a pressure gauge (0-30 psi, 0.2 psi resolution, Airgas). An electro-pneumatic regulator (0-20 psi output, Omega) enabled precise control of the magnitude and duration of applied pressure for sub-second periods of time via control through LabVIEW. Pressures between 5-10 psi were estimated to generate ˜kPa-scale stresses required to deform cells with elastic moduli in the kPa range.
After applying pressure to induce deformation of cells through the pores, the number of passaged cells was counted. We used a flow cytometer to count cells in the individual wells of a 96-well plate using scattered light (forward versus side scatter) as a signal (LSRII flow cytometer, BD Biosciences). An entire 96-well plate was counted within 15 minutes.
(§1) As shown in FIG. 27 the effect of various anti-cancer drugs (e.g., cytochalisin D, paclitaxel, daunorubicin, colchicine) can readily be detected using the HTMS systems described herein. […] Without being bound by a particular theory, it is believed that that the changes in mechanical properties are produced by the action of the drugs on cytoskeletal elements (e.g., actin filaments). Similarly, as shown in FIG. 28 the HTMS measurements made herein can be used to detect dose-response effects of various agents (e.g., anti-cancer drugs) on cells. In this experiment, HL60 cells were treated with 10.0 μM colchicine. Without being bound by a particular theory it is believed that colchicine perturbs microtubules at low concentrations and stabilizes F-actin at high concentrations.

[2] = tested on: OVCAR5 cells; assay: HTMS measurement of drug treatment on ovarian cancer cells; format: cell-based; settings: OVCAR5-CIS+ cells treated for <1 day; 0.4 psi for 35 s; FIG. 32
Source text: FIG. 32 illustrates the use of HTMS measurements to detect the effects of drug treatment on cancer cells. Data: 0.4 psi for 35 s.
In addition, the HTMS systems described herein can be used to monitor the progression of drug treatments. Ovarian cancer cells: SKOV3 and OVCAR5 are cisplatin sensitive, while SKOV3-CISR and OVCAR5-CISR are cisplatin resistant.

[3] = tested on: adherent murine mammary carcinoma cells (67NR); assay: HTMS measurement on adherent carcinoma cells; format: cell-based; settings: 67NR cells; FIG. 29
Source text: FIG. 29 illustrates the effect of various drugs on adherent murine mammary carcinoma cells (67NR).
as §1

[4] = tested on: human promyelocytic leukemia (HL60) cells; assay: Flow of cells through constricted microfluidic channels (deformation time); format: cell-based; settings: HL60 cells treated with drug to perturb actin network; narrow constrictions
Source text: To dissect the contributions of nuclear physical properties to whole cell deformability, human promyelocytic leukemia (HL60) cells provide a convenient model system. These cells can be readily differentiated into neutrophil-type cells in vitro. During this process of granulopoiesis, the cell nucleus undergoes major changes in morphology as it transitions from an ovoid to an irregular, multi-lobed structure.
In addition to these induced changes in nuclear morphology, cytoskeletal protein expression is also altered. Levels of actin increase during differentiation, and cortical actin is implicated in the resistance of these cells to out-of-plane deformations. To determine the contributions of actin to cellular deformation, cells were treated with a drug (cytochalasin B) to perturb their actin network. […] One determinant of nucleus shape stability is the intermediate filament type protein, lamin A. This protein is a major constituent of the meshwork underlying the nuclear envelope, and its expression levels are directly linked to nuclear mechanical properties.

CC1=C(/C=C/C(C)=C/C=C/C(C)=C/C(=O)O)C(C)(C)CCC1 [ATRA]
pressure dependence of cell passage versus HL60 cells ([1]; neutrophil-type (ATRA-treated) cells, FIG. 25): different pressure dependence

N.N.[Cl][Pt][Cl] [cisplatin]
difference in HTMS measurement compared with OVCAR5 cells [2]: no apparent difference

COc1cc2c(c(OC)c1OC)-c1ccc(OC)c(=O)cc1[C@@H](NC(C)=O)CC2 [colchicine]
cell deformability ([1]; HL60 cells, 10.0 μM): decrease the deformability
cell stiffness (dose response) ([1]; HL60 cells, low drug concentration, FIG. 28): increased cell stiffness
dose response effects on cell mechanical properties [3]: Dose response effects of colchicine are also observed

C=C1[C@@H](C)[C@H]2[C@H](Cc3ccccc3)NC(=O)[C@]23OC(=O)/C=C/[C@H](O)CCC[C@@H](C)C/C=C/[C@H]3[C@@H]1O [cytochalasin B]
difference in cellular deformation between treated and non-treated controls [4]: no detectable difference

C=C1[C@@H](C)[C@H]2[C@H](Cc3ccccc3)NC(=O)[C@]23[C@H](OC(C)=O)/C=C/[C@@](C)(O)C(=O)[C@@H](C)C/C=C/[C@H]3[C@@H]1O [cytochalasin D]
cell deformability ([1]; HL60 cells, 2.0 μM): increase cell deformability

COc1cccc2c1C(=O)c1c(O)c3c(c(O)c1C2=O)C[C@@](O)(C(C)=O)C[C@@H]3O[C@H]1C[C@H](N)[C@H](O)[C@H](C)O1 [dauorubicin]
cell deformability ([1]; HL60 cells, 1.0 μM): decrease the deformability

CC(=O)O[C@H]1C(=O)[C@@]2(C)[C@H]([C@H](OC(=O)c3ccccc3)[C@]3(O)C[C@H](OC(=O)[C@H](O)[C@@H](NC(=O)c4ccccc4)c4ccccc4)C(C)=C1C3(C)C)[C@]1(OC(C)=O)CO[C@@H]1C[C@@H]2O [paclitaxel]
cell deformability ([1]; HL60 cells, 1.5 μM): increase cell deformability
